According to patent US12098179B2, “Antigenic peptides deriving from urocortin 3 and uses thereof for the diagnosis and treatment of type 1 diabetes” (INSERM (INSTITUT NATIONAL DE LA SANTÉ ET DE LA RECHERCHE …, priority 2018, dated 2024):
Ends that are not written are not given here.

Key:
[1] = system: circulating CD8^+ T cells; assay: ex vivo combinatorial HLA-A2 MMr assay on PBMCs; type: cell-based, human
Description: All peptides were synthesized at >90% purity (Synpeptides). HLA-A2 MMrs were produced as described (Leisner et al., 2008) and staining performed in the presence of 50 nM dasatinib (Lissina et al., 2009), as described (Culina et al., 2018). Briefly, cryopreserved PBMCs were magnetically depleted of CD8^− cells (StemCell Technologies), stained with the combinatorial MMr panels (Hadrup et al., 2009) and acquired using a FACSAria III cytometer.

[2] = system: circulating CD8^+ T cells; assay: ex vivo HLA-A3 multimer (MMr) staining of PBMCs; type: cell-based, human; conditions: HLA-A3^+ T1D and healthy donors
Description: HLA-A3 MMrs were produced and used as described (Gonzalez-Duque, Cell Metab 2018). Each peptide-HLA-A3 complex was used at a final concentration of 8-27 nM and conjugated with fluorochrome-labeled streptavidin at a 1:4 ratio. The concentration of each fluorescent MMr was corrected for the variable staining index of each streptavidin, in order to obtain a distinct double-MMr^+ population for each fluorochrome pair. Compensations were set using fluorescence-minus-one samples (i.e. omitting one streptavidin at a time). The combinatorial MMr panel was first set up by staining HLA-A3^+ PBMCs with the same set of fluorescent streptavidin-labeled MMrs, all loaded with the Flu NP265-273 epitope, which yielded a similar MMr^+CD8^+ T-cell frequency for all the 15 MMr combination pairs.
PBMCs were thawed at 37° C. and immediately diluted in pre-warmed AIM-V medium. Following centrifugation and one additional wash in AIM-V, PBMCs were counted and rested in the presence of 50 nM dasatinib for 30 min at 37° C. to prevent internalization of T-cell receptors before magnetic depletion of CD8^− cells (StemCell Technologies). Staining was performed for 20 min at 20° C. in […] PBS-dasatinib for 10^7 cells with combinatorial double-coded MMr panels, followed, without washing, by CD3-APC-H7 (RRID AB_1645475), CD8-PE-Cy7 (AB_396852), CD45RA-FITC (AB_395879), CCR7-BV421 (AB_2728119) monoclonal antibodies and Live/Dead Aqua (ThermoFisher) staining at 4° C. for 20 min. After one wash, cells were acquired using a FACSAria III cytometer. […] Flow cytometry data were analyzed with FlowJo v10 and Graphpad Prism 7.0 software. Cells were sequentially gated on small lymphocytes, singlets, live cells (Live/Dead Aqua l, CD3^+CD8^+ T cells and total PE^+, PE-CF594^+, APC^+, BV650^+, BV711^+ and BV786^+ MMr^+ T cells. Using Boolean operators, these latter gates allowed to selectively visualize each double-MMr^+ population by including only those events positive for the corresponding fluorochrome pair. For example, SCG3166-174 MMr^+ cells (PE^+PE-CF594^+) were visualized by gating on events that were PE^+PE-CF594^+APC^−BV650^−BV711^−BV786^−. Events negative for all MMr fluorochromes (PE^−PE-CF594^−APC^−BV650^−BV711^−BV786^−) were represented in the same PE/PE-CF-594 dot plot to set the double-MMr^+ gate. CD45RA and CCR7 staining was subsequently visualized by gating on these MMr^+ cells.

[3] = system: islet-infiltrating CD8^+ T cells of NOD mice; assay: IFN-γ recall assay of islet-infiltrating cells against peptide-pulsed K^d+ L cells; type: cell-based, mouse; conditions: 12-16-week-old NOD females; for percentage of IFN-γ^+CD8^+ cells, median / percentage of IFN-γ^+CD8^+ cells, positive range: 6 h recall; for positive mice (IFN-γ^+CD8^+ cells >1.8%): positive / tested
Source text: Peptides predicted to be restricted by the murine MHC Class I K^d molecule were identified using prediction algorithms and scanning of the whole murine protein sequence. Peptides were first tested in pools, and positive pools subsequently deconvoluted for reactivity against individual peptides. To this end, islets were isolated from 12-16-week-old NOD mice by collagenase digestion and put in culture with recombinant human IL-2 (Proleukin, Novartis) for 5 days as described (Brezar et al, Eur J Immunol 2012). Cells exiting the islets were subsequently collected and subjected to recall assays against K^d+ L antigen-presenting cells pulsed with the indicated peptides for 6 h in the presence of brefeldin-A, followed by intracellular staining for IFN-γ. The TUM, Ins B15-23 and IGRP 206-214 peptides were included as negative control and positive controls, respectively.

[4] = system: pancreas-infiltrating cells of HLA-A2^+ T1D patients; assay: in-situ HLA-A2 MMr staining on pancreas sections; type: cell-based, human; conditions: 2 HLA-A2^+ T1D cases (nPOD)
Description: In-situ staining was performed as described (Culina et al., 2018). Unfixed, frozen sections were dried for 2 h, loaded with 1 μg of MMrs overnight at 4° C., washed gently with phosphate-buffered saline and fixed in 2% paraformaldehyde for 10 min. After a further wash, endogenous peroxidase activity was blocked with 0.3% H2O2. Sections were then incubated serially with rabbit anti-phycoerythrin, horseradish peroxidase-conjugated swine anti-rabbit and 3,3′-diaminobenzidine tetrahydrochloride substrate (ThermoFisher). After a final wash, sections were counterstained with hematoxylin, dehydrated via sequential passages in 95-100% ethanol and xylene, mounted and analyzed using a Nikon Eclipse Ni microscope with NIS-Elements Analysis D software v4.40.

[5] = HLA-A2^+ healthy donors, screening
[6] = HLA-A2^+ recent-onset T1D and healthy subjects (n=10/each)

CHGA344-352: HLA-A2-restricted HLA-eluted β-cell peptide from chromogranin A (KMDQLAKEL)
cognate naïve CD8^+ T-cell repertoire (frequency 1-50/10^6, clustered MMr staining) validated [1, 5]: validated

FLSGAVNRL [SCG5-009186-194]
cognate naïve CD8^+ T-cell repertoire (frequency 1-50/10^6, clustered MMr staining) validated [1, 5]: validated
frequency of MMr^+ cells (in words) [1, 6]: particularly high and clustered

GQWEDASLLSK
validation as HLA-A3-restricted CD8^+ T-cell epitope [2]: positive hits

GYRDINEIDI [Pcsk2 109-118, murine Pcsk2 peptide predicted to be restricted by K^d]
percentage of positive mice [3]: 50%
percentage of IFN-γ^+CD8^+ cells, median [3]: 1.8%
percentage of IFN-γ^+CD8^+ cells, positive range [3]: 1.9-4.3%

IGRP 206-214: positive control peptide in NOD recall assay (VYLKTNVFL; UniProt Q9Z186 206-214, looked up, fragment) [reference compound]
percentage of positive mice [3]: 100%
percentage of IFN-γ^+CD8^+ cells, median [3]: 12.5%
percentage of IFN-γ^+CD8^+ cells, positive range [3]: 4.5-25.3%
positive mice (IFN-γ^+CD8^+ cells >1.8%) [3]: 13/13

ISL1276-284: HLA-A2-restricted HLA-eluted peptide from insulin gene enhancer protein ISL1 (GLQANPVEV)
cognate naïve CD8^+ T-cell repertoire (frequency 1-50/10^6, clustered MMr staining) validated [1, 5]: validated
median frequency detected in peripheral blood ([1]; T1D patients): 7.2×10^−6
in-situ MMr staining of pancreas sections [4]: MMr^+ cells could be detected

KCNK16129-137: HLA-A2-restricted HLA-eluted β-cell peptide from KCNK16 (ALLGIPLNV)
cognate naïve CD8^+ T-cell repertoire (frequency 1-50/10^6, clustered MMr staining) validated [1, 5]: validated

KIF1A860-868: HLA-A3-restricted islet peptide from KIF1A (LLYPVPLVH)
validation as HLA-A3-restricted CD8^+ T-cell epitope [2]: positive hits

KIF1A1347-1355: HLA-A2-restricted HLA-eluted β-cell peptide from Kinesin Family Member 1A (VLDTSVAYV)
cognate naïve CD8^+ T-cell repertoire (frequency 1-50/10^6, clustered MMr staining) validated [1, 5]: validated

LYDESCSSTL [Pcsk2 341-350, murine Pcsk2 peptide predicted to be restricted by K^d]
percentage of positive mice [3]: 75%
percentage of IFN-γ^+CD8^+ cells, median [3]: 3.3%
percentage of IFN-γ^+CD8^+ cells, positive range [3]: 1.9-5.2%
positive mice (IFN-γ^+CD8^+ cells >1.8%) [3]: 6/8

MLMPVHFLL
cognate naïve CD8^+ T-cell repertoire (frequency 1-50/10^6, clustered MMr staining) validated [1, 5]: validated
frequency of MMr^+ cells (in words) [1, 6]: particularly high and clustered

PCSK230-38: HLA-A2-restricted HLA-eluted β-cell peptide from proprotein convertase 2 (FTNHFLVEL)
cognate naïve CD8^+ T-cell repertoire (frequency 1-50/10^6, clustered MMr staining) validated [1, 5]: validated

PNMA250-58: HLA-A3-binding islet peptide not validated as CD8+ T-cell epitope (RLLGKIFRK)
validation as HLA-A3-restricted CD8^+ T-cell epitope [2]: single exception

PPI6-14: known preproinsulin β-cell epitope used as β-cell positive control (RLLPLLALL; UniProt P01308 6-14, looked up, fragment) [reference compound]
frequency of CD8^+ T cells recognizing the peptide [1, 5]: 1-50 /10^6 CD8^+ T cells
frequency of circulating CD8^+ T cells recognizing the peptide ([1]; HLA-A2^+ recent-onset T1D and healthy subjects (n=10/each), similar in both): 1-50 /10^6 CD8^+ T cells

RLKPSLVGK [SCG5-009193-201, HLA-A3 restricted peptide from mRNA splice variant SCG5-009]
validation as HLA-A3-restricted CD8^+ T-cell epitope [2]: positive hits

RYLEHVQAVI [Pcsk2 501-510, murine Pcsk2 peptide predicted to be restricted by K^d]
percentage of positive mice [3]: 63%
percentage of IFN-γ^+CD8^+ cells, median [3]: 2.7%
percentage of IFN-γ^+CD8^+ cells, positive range [3]: 2.1-8.0%
positive mice (IFN-γ^+CD8^+ cells >1.8%) [3]: 5/8

SCG3166-174: HLA-A3-restricted islet peptide from secretogranin III (AVFDKIVSK)
validation as HLA-A3-restricted CD8^+ T-cell epitope [2]: positive hits

SCG5186-195: HLA-A2-restricted HLA-eluted β-cell peptide from SCG5 (7B2) (YLQGQRLDNV)
cognate naïve CD8^+ T-cell repertoire (frequency 1-50/10^6, clustered MMr staining) validated [1, 5]: validated

TYFLLPLLL [Ucn3 5-13, murine Ucn3 peptide predicted to be restricted by K^d]
percentage of positive mice [3]: 67%
percentage of IFN-γ^+CD8^+ cells, median [3]: 2.3%
percentage of IFN-γ^+CD8^+ cells, positive range [3]: 2.1-8.6%
positive mice (IFN-γ^+CD8^+ cells >1.8%) [3]: 8/12

VFSCLNTAL [Ucn3 32-40, murine Ucn3 peptide predicted to be restricted by K^d]
percentage of positive mice [3]: 67%
percentage of IFN-γ^+CD8^+ cells, median [3]: 1.9%
percentage of IFN-γ^+CD8^+ cells, positive range [3]: 1.9-3.3%
positive mice (IFN-γ^+CD8^+ cells >1.8%) [3]: 8/12

ZnT8186-184: positive control islet peptide (VAANIVLTV; UniProt Q8IWU4 186-194, looked up, fragment) [reference compound]
in-situ MMr staining of pancreas sections [4]: MMr^+ cells could be detected
